# Measured values: patent US20120121591A1 (priority 2009, published 2012)
# Columns and labels:
# Assay type in all cases: cell-based
# [1] = tested on: IL-2 secretion from T cells in human whole blood; conditions: read-out: WB (IL-2) IC50 (nM, Avg)
# [2] = tested on: IFN-g secretion from T cells in human whole blood; conditions: read-out: WB (IFNg) IC50 (nM, Avg)
# [3] = molecular target: hKv1.3 (Homo sapiens, UniProt P22001); assay: cell-based; conditions: Kv1.3 (IWQ) IC50 (nM, Avg)
# Chain of hKv1.3 (P22001 whole entry): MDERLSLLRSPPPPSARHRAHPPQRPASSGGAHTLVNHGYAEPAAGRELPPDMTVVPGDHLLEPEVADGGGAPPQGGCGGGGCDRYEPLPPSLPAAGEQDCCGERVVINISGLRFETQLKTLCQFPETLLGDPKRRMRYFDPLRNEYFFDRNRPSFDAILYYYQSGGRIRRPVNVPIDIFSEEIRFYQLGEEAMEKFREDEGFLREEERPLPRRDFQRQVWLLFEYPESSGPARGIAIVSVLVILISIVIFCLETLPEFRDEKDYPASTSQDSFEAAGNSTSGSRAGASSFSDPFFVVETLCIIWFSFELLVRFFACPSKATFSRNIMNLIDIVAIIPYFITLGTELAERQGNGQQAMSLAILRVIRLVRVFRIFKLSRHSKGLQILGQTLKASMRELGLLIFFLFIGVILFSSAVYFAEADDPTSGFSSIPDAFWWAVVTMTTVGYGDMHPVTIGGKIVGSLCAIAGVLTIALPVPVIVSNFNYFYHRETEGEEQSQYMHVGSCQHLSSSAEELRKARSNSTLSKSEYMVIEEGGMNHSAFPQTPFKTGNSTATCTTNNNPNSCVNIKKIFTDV
structure (smiles),measurement,setting,value
"CCCC[C@@H]1NC(=O)[C@H](CO)NC(=O)[C@H](Cc2c[nH]cn2)NC(=O)[C@H](CCCCN)NC(=O)[C@@H]2CSSC[C@@H]3NC(=O)[C@H]([C@@H](C)O)NC(=O)[C@H](CCCCN)NC(=O)[C@H](CCCNC(=N)N)NC(=O)[C@H](CSSC[C@H](NC(=O)[C@H](CCCNC(=N)N)NC(=O)[C@H](CO)NC(=O)[C@H](CCCCN)NC(=O)[C@@H]4CCCN4C(=O)[C@H]([C@@H](C)CC)NC(=O)[C@H]([C@@H](C)O)NC(=O)[C@H](CC(=O)O)NC(=O)[C@H](CCC(=O)O)NC(=O)[C@@H](NC(=O)[C@H](CO)NC(=O)[C@@H](N)CCCNC(=N)N)CSSC[C@@H](C(=O)N[C@@H](C)C(=O)O)NC(=O)[C@H]([C@@H](C)O)NC(=O)CNC3=O)C(=O)N[C@@H]([C@@H](C)O)C(=O)N[C@@H](C)C(=O)N[C@@H](Cc3ccccc3)C(=O)N[C@@H](CCCCN)C(=O)N2)NC(=O)[C@H](Cc2ccccc2)NC(=O)[C@H](CO)NC(=O)[C@H](CC(C)C)NC(=O)[C@H](CCCNC(=N)N)NC(=O)[C@H](Cc2ccc(O)cc2)NC(=O)[C@H](CCCCN)NC1=O [[Glu4,Lys16,N1e21]ShK-Ala]",IC50,[1],0.327 nM
same,IC50,[2],0.987 nM
same,IC50,[3],33.3 nM
"CCC[C@@H]1NC(=O)[C@H](CO)NC(=O)[C@H](Cc2c[nH]cn2)NC(=O)[C@H](CCCCN)NC(=O)[C@@H]2CSSC[C@@H]3NC(=O)[C@H]([C@@H](C)O)NC(=O)[C@H](CCCCN)NC(=O)[C@H](CCCNC(=N)N)NC(=O)[C@H](CSSC[C@H](NC(=O)[C@H](CCCNC(=N)N)NC(=O)[C@H](CO)NC(=O)[C@H](CCCCN)NC(=O)[C@@H]4CCCN4C(=O)[C@H]([C@@H](C)CC)NC(=O)[C@H]([C@@H](C)O)NC(=O)[C@H](CC(=O)O)NC(=O)[C@H](CCC(=O)O)NC(=O)[C@@H](NC(=O)[C@H](CO)NC(=O)[C@@H](N)CCCNC(=N)N)CSSC[C@@H](C(=O)N[C@@H](C)C(=O)O)NC(=O)[C@H]([C@@H](C)O)NC(=O)CNC3=O)C(=O)N[C@@H]([C@@H](C)O)C(=O)N[C@@H](C)C(=O)N[C@@H](Cc3ccccc3)C(=O)N[C@@H](CCCCN)C(=O)N2)NC(=O)[C@H](Cc2ccccc2)NC(=O)[C@H](CO)NC(=O)[C@H](CC(C)C)NC(=O)[C@H](CCCNC(=N)N)NC(=O)[C@H](Cc2ccc(O)cc2)NC(=O)[C@H](CCCCN)NC1=O [[Glu4,Lys16,Nva21]ShK-Ala]",IC50,[1],0.208 nM
same,IC50,[2],0.368 nM
same,IC50,[3],33.3 nM
"CC[C@H](C)[C@@H]1NC(=O)[C@H]([C@@H](C)O)NC(=O)[C@H](CC(=O)O)NC(=O)[C@H](CCC(=O)O)NC(=O)[C@@H](NC(=O)[C@H](CO)NC(=O)[C@@H](N)CCCNC(=N)N)CSSC[C@@H](C(N)=O)NC(=O)[C@H]([C@@H](C)O)NC(=O)CNC(=O)[C@@H]2CSSC[C@@H]3NC(=O)[C@H](CCCCN)NC(=O)[C@H](Cc4ccccc4)NC(=O)[C@H](C)NC(=O)[C@H]([C@@H](C)O)NC(=O)[C@H](CSSC[C@H](NC(=O)[C@H](Cc4ccccc4)NC(=O)[C@H](CO)NC(=O)[C@H](CC(C)C)NC(=O)[C@H](CCCNC(=N)N)NC(=O)[C@H](Cc4ccc(O)cc4)NC(=O)[C@H](CCCCN)NC(=O)[C@H](CCSC)NC(=O)[C@H](CO)NC(=O)[C@H](Cc4c[nH]cn4)NC(=O)[C@H](CCCCN)NC3=O)C(=O)N[C@@H](CCCNC(=N)N)C(=O)N[C@@H](CCCCN)C(=O)N[C@@H]([C@@H](C)O)C(=O)N2)NC(=O)[C@H](CCCNC(=N)N)NC(=O)[C@H](CO)NC(=O)[C@H](CCCCN)NC(=O)[C@@H]2CCCN2C1=O [[Glu4,Lys16]ShK-amide]",IC50,[1],0.071 nM
same,IC50,[2],0.068 nM
same,IC50,[3],0.127 nM
"CC[C@H](C)[C@@H]1NC(=O)[C@H]([C@@H](C)O)NC(=O)[C@H](CC(=O)O)NC(=O)[C@H](CCC(=O)O)NC(=O)[C@@H](NC(=O)[C@H](CO)NC(=O)[C@@H](N)CCCNC(=N)N)CSSC[C@@H](C(N)=O)NC(=O)[C@H]([C@@H](C)O)NC(=O)CNC(=O)[C@@H]2CSSC[C@@H]3NC(=O)[C@H](CCCCN)NC(=O)[C@H](Cc4ccccc4)NC(=O)[C@H](C)NC(=O)[C@H]([C@@H](C)O)NC(=O)[C@H](CSSC[C@H](NC(=O)[C@H](Cc4ccccc4)NC(=O)[C@H](Cc4cccc5ccccc45)NC(=O)[C@H](CC(C)C)NC(=O)[C@H](CCCNC(=N)N)NC(=O)[C@H](Cc4ccc(O)cc4)NC(=O)[C@H](CCCCN)NC(=O)[C@H](CCSC)NC(=O)[C@H](CO)NC(=O)[C@H](Cc4c[nH]cn4)NC(=O)[C@H](CCCCN)NC3=O)C(=O)N[C@@H](CCCCN)C(=O)N[C@@H](CCCNC(=N)N)C(=O)N[C@@H]([C@@H](C)O)C(=O)N2)NC(=O)[C@H](CCCNC(=N)N)NC(=O)[C@H](CO)NC(=O)[C@H](CCCCN)NC(=O)[C@@H]2CCCN2C1=O [[Glu4; Lys16,29;1-Na126;Arg30]ShK-amide]",IC50,[1],0.712 nM
same,IC50,[2],0.598 nM
same,IC50,[3],0.384 nM
"CC[C@H](C)[C@@H]1NC(=O)[C@H]([C@@H](C)O)NC(=O)[C@H](CC(=O)O)NC(=O)[C@H](CCC(=O)O)NC(=O)[C@@H](NC(=O)[C@H](CO)NC(=O)[C@@H](N)CCCNC(=N)N)CSSC[C@@H](C(N)=O)NC(=O)[C@H]([C@@H](C)O)NC(=O)CNC(=O)[C@@H]2CSSC[C@@H]3NC(=O)[C@H](CCCCN)NC(=O)[C@H](Cc4ccccc4)NC(=O)[C@H](C)NC(=O)[C@H]([C@@H](C)O)NC(=O)[C@H](CSSC[C@H](NC(=O)[C@H](Cc4ccccc4)NC(=O)[C@H](CO)NC(=O)[C@H](CC(C)C)NC(=O)[C@H](CCCNC(=N)N)NC(=O)[C@H](Cc4ccc(O)cc4)NC(=O)[C@H](CCCCN)NC(=O)[C@H](CCSC)NC(=O)[C@H](CO)NC(=O)[C@H](Cc4c[nH]cn4)NC(=O)[C@H](CCCCN)NC3=O)C(=O)N[C@@H](CCCCN)C(=O)N[C@@H](CCCNC(=N)N)C(=O)N[C@@H]([C@@H](C)O)C(=O)N2)NC(=O)[C@H](CCCNC(=N)N)NC(=O)[C@H](CO)NC(=O)[C@H](CCCCN)NC(=O)[C@@H]2CCCN2C1=O [[Glu4; Lys16,29;Arg30]ShK-amide]",IC50,[1],0.067 nM
same,IC50,[2],0.28 nM
same,IC50,[3],0.104 nM
"CC[C@H](C)[C@@H]1NC(=O)[C@H]([C@@H](C)O)NC(=O)[C@H](CC(=O)O)NC(=O)[C@H](CCC(=O)O)NC(=O)[C@@H](NC(=O)[C@H](CO)NC(=O)[C@@H](N)CCCNC(=N)N)CSSC[C@@H](C(N)=O)NC(=O)[C@H]([C@@H](C)O)NC(=O)CNC(=O)[C@@H]2CSSC[C@@H]3NC(=O)[C@H](CCCCN)NC(=O)[C@H](Cc4ccccc4)NC(=O)[C@H](C)NC(=O)[C@H]([C@@H](C)O)NC(=O)[C@H](CSSC[C@H](NC(=O)[C@H](Cc4ccccc4)NC(=O)[C@H](CO)NC(=O)[C@H](CC(C)C)NC(=O)[C@H](CCCNC(=N)N)NC(=O)[C@H](Cc4ccc(O)cc4)NC(=O)[C@H](CCCCN)NC(=O)[C@H](CCSC)NC(=O)[C@H](CO)NC(=O)[C@H](Cc4c[nH]cn4)NC(=O)[C@H](CCCNC(=N)N)NC3=O)C(=O)N[C@@H](CCCCN)C(=O)N[C@@H](CCCNC(=N)N)C(=O)N[C@@H]([C@@H](C)O)C(=O)N2)NC(=O)[C@H](CCCNC(=N)N)NC(=O)[C@H](CO)NC(=O)[C@H](CCCCN)NC(=O)[C@@H]2CCCN2C1=O [[Glu4; Lys16, 29;Arg18, 30]ShK-amide]",IC50,[1],0.203 nM
same,IC50,[2],0.353 nM
same,IC50,[3],0.192 nM
